Results from patent US5919755A, “Medical use of heme products” (Leiras OY, priority 1995, dated 1999).
Several values for one entry are separate records, joined by “and”; a condition that tells them apart may be missing. Equal values may be shown once. Read-outs that look alike come from different tables or passages of the source.

What was measured:
[1] = cited from earlier work
[2] = cited from earlier work; remark: listed apart in the source
[3] = test system: blasts in bone marrow; test: Proportion of blasts in the bone marrow of myelodysplastic patients; format: in vivo, human; settings: for Blasts in bone marrow, after / Myeloblasts in bone marrow, after / Sum of blasts and myeloblasts in bone marrow, after: one week after last of 15 infusions, 3 mg hemin/kg i.v.; for Myelodysplastic syndrome subtype, after: after treatment
Experimental: 2. Proportion of blasts in the bone marrow of myelodysplastic patients
In a clinical study patients with myelodysplastic syndromes were treated with intravenous infusions of heme arginate at the dose level 3 mg hemin/kg. The infusions were given first on four consecutive days and after that once a week for eleven weeks. Thus totally 15 infusions were given to each patient.
Bone marrow sample was collected from each patient before start of the heme arginate infusions and one week after the last infusion. Proportion of blasts and myeloblasts were determined in the bone marrow samples by using standard hematological laboratory procedures. The definition of "a blast" as used in the classification of myelodysplastic syndromes includes both blasts and myeloblasts (9).

[4] = test system: human erythroid precursors; test: Induction of production of fetal hemoglobin in vitro (two-phase liquid culture, HPLC); format: cell-based
Source text: Cells grown in phase II in the presence of the indicated concentrations of heme arginate, were harvested on day 13 and their hemoglobin quantitated.
Cells grown in phase II in the presence of the indicated concentrations of heme arginate, were harvested on day 13 and their hemoglobin chromatographed and quantitated.
Cells grown in phase II in the absence or presence of heme arginate from day 0 and with the indicated concentrations of hydroxyurea from day 5, were harvested on day 13 and their hemoglobin chromatographed and quantitated.
3. Induction of production of fetal hemoglobin in vitro
Peripheral blood mononuclear cells obtained from normal volunteers and either sickle cell anemia or β-thalassemia patients were isolated by centrifugation on a gradient of Ficoll-Hypaque and seeded at a density of 5×10^6 cells/ml in alpha-minimal essential medium supplemented with 10% fetal calf serum (FCS), 1 μg/ml cyclosporin A, and 10% conditioned medium collected from cultures of the 5637 bladder-carcinoma cell line. The cultures were incubated at +37° C. in an atmosphere of 5% CO2 in air with extra humidity.
Following 7-day incubation in this phase I culture, the non-adherent cells were harvested, washed, and recultured in fresh medium composed of alpha-medium, 30% FCS, 1% deionized bovine serum albumin, 1×10^-5 M β-mercaptoethanol, 1.5 mM glutamine, 1×10^-6 M dexamethasone, and 1 U/ml human recombinant erythropoietin. Hemoglobin containing cells were determined by using the benzidine-HCl procedure.
The effect of heme arginate on fetal hemoglobin (Hb-F) production was determined by growing human erythroid precursors in the second phase of the above described liquide cell culture in the presence of 1 U/ml erythropoietin and different concentrations of heme arginate. The combination effect of heme arginate and hydroxyurea was investigated with 100 μM heme arginate added on day 0 and various concentrations of hydroxyurea added on day 5. Cells were harvested on day 13 and lysed, and their total hemoglobin and Hb-F content was analyzed by cation-exchange HPLC.

[5] = test system: polychromatic erythrocytes; test: Mouse micronucleus assay (micronucleated polychromatic erythrocytes in bone marrow smears); format: in vivo, mouse (CD-1 outbred, Swiss origin); settings: for Incidence: number of micronucleated polychromatic erythrocytes per 1000 polychromatic erythrocytes examined: 36 mg/kg i.v.
Source text: 1. Mouse micronucleus assay
Micronuclei are seen in a variety of cells, but erythrocytes are chosen for examination since micronuclei are easily detected in this cell type.
A few hours after the last mitosis is completed, erythroblasts expel their nucleus. Young erythrocytes stain blue with Giemsa due to the presence of ribonucleic acid, which gradually disappears so that more mature erythrocytes stain pink with Giemsa. The young blue-staining cells are known as polychromatic erythrocytes and micronuclei are readily detected in this cell type.
The test animals were specific pathogen free CD-1 outbred mice of Swiss origin weighing between 22 and 24 grams and approximately 40 days old during the study. The mice were acclimatized for four days and after that dosed by intravenous injection with a volume of 10 ml/kg body weight either with saline solution (vehicle control) or with heme arginate solution at the dose 36 mg hemin/kg body weight. Five male and five female mice were sacrificed by cervical dislocation 24, 48, and 72 hours after dosing. A direct bone marrow smear was made from femur onto a slide containing a drop of calf serum. The smears were fixed in methanol, air dried, and stained for 10 minutes in 10% Giemsa solution. The stained smears were examined (under code) by light microscopy to determine the incidence of micronucleated cells per 1000 polychromatic erythrocytes per animal.

[6] = rat, intravenous dose of 3 mg/kg; cited from earlier work
[7] = test system: myelodysplastic syndromes; settings: part of MDS patients; cited from earlier work
[8] = test system: plasma proteins; settings: after infusion into the blood stream; cited from earlier work
[9] = test system: myelodysplastic syndrome; settings: cited from earlier work
[10] = humans, intravenous dose of 3 mg/kg; cited from earlier work
[11] = test system: myelodysplastic syndrome; settings: cited from earlier work; remark: listed apart in the source
[12] = Table 3, one line per patient, baseline before treatment
[13] = Table 4, patients not considered good responders, one line per patient, baseline before treatment
[14] = Table 4, patients not considered good responders, one line per patient
[15] = of 26 patients, 2-3 mg hemin/kg

C=CC1=C(C)c2cc3[n-]c(cc4[n-]c(cc5nc(cc1n2)C(C)=C5C=C)c(C)c4CCC(=O)O)c(CCC(=O)O)c3C.O.[Fe+2] [hematin]
adverse effects ([1]; in vivo, iv): often complicated by adverse effects, including phlebitis at the infusion site and disturbances in hemostasis

Hemin
solubility [2]: poorly soluble

heme arginate
adverse effects ([1]; intravenous use, incl. phlebitis at infusion site and disturbances in hemostasis): lack of serious adverse effects
adverse effects ([1]; intravenous use, incl. phlebitis at infusion site and disturbances in hemostasis, listed as Heme arginate): seldom produces these effects and therefore is better tolerated
Blasts in bone marrow, before ([3]; Table 3, RAEB or RAEB-t patients, one line per patient, baseline before treatment): 4% and 3% and 6% and 15% and 10%
Blasts in bone marrow, after ([3]; Table 3, RAEB or RAEB-t patients, one line per patient): 0% and 1% and 4% and 6%
Myelodysplastic syndrome subtype, after ([3]; Table 3, one line per patient): RARS and RAEB
Myeloblasts in bone marrow, before [3, 12]: 6% and 8% and 4% and 3% and 20%
Myelodysplastic syndrome subtype, before [3, 12]: RAEB and RAEB-t
Myeloblasts in bone marrow, after ([3]; Table 3, one line per patient): 4% and 3%
Sum of blasts and myeloblasts in bone marrow, after ([3]; Table 3 and text, one line per patient): 4% and 8% and 10%
patients with a clear decrease of blasts ([3]; Table 3 patients, of 21): 5/21
Blasts in bone marrow, before ([3]; Table 4, RARS or RAEB patients not considered good responders, one line per patient, baseline before treatment): 5 and 8 and 2 and 3 and 1 and 4 and 0
Myelodysplastic syndrome subtype, after ([3]; Table 4, one line per patient): RAEB and RARS
Myelodysplastic syndrome subtype, before ([3]; Table 4, one line per patient, baseline before treatment): RAEB and RARS
Myeloblasts in bone marrow, before [3, 13]: 4 and 2 and 8 and 9 and 3 and 10 and 5 and 1
Sum of blasts and myeloblasts in bone marrow, before [3, 13]: 9 and 12 and 4 and 5 and 7 and 14 and 13 and 3 and 1 and 10
Blasts in bone marrow, after [3, 14]: 5 and 8 and 0 and 2 and 3 and 1 and 4
Myeloblasts in bone marrow, after [3, 14]: 3 and 2 and 1 and 7 and 6 and 10 and 9 and 5 and 0
Sum of blasts and myeloblasts in bone marrow, after [3, 14]: 8 and 11 and 2 and 3 and 7 and 13 and 4 and 12 and 6 and 1 and 9
patients with a smaller decrease of blasts ([3]; Table 4 patients, of 21): 12/21
patients with no effect on blasts ([3]; Table 4 patients, of 21): 1/21
patients with slight increase of blasts ([3]; Table 4 patients, of 21): 3/21
patients with some decrease of blasts, totally ([3]; all patients, of 21): 17/21
effect on proportion of blasts in bone marrow ([3]; some MDS patients): able to decrease proportion of blasts
amount of total hemoglobin produced ([4]; FIG. 1, phase II culture, harvested day 13, erythroid precursors from patients with hemoglobinopathies): increases the amount of total hemoglobin
proportion of fetal hemoglobin (Hb-F) ([4]; FIG. 2, phase II culture, harvested day 13, heme arginate alone): increases the proportion of fetal hemoglobin
effect of heme arginate on proportion of fetal hemoglobin (Hb-F) in presence of hydroxyurea ([4]; FIG. 3, heme arginate 100 μM from day 0, hydroxyurea 25-200 μM from day 5, harvested day 13): potentiated by the presence of hydroxyurea
Incidence: number of micronucleated polychromatic erythrocytes per 1000 polychromatic erythrocytes examined ([5]; killed 24 hours after dosing, vehicle control 1.2): 1.1 per 1000 polychromatic erythrocytes
Incidence: number of micronucleated polychromatic erythrocytes per 1000 polychromatic erythrocytes examined ([5]; killed 48 hours after dosing, vehicle control 1.0): 0.5 per 1000 polychromatic erythrocytes
Incidence: number of micronucleated polychromatic erythrocytes per 1000 polychromatic erythrocytes examined ([5]; killed 72 hours after dosing, vehicle control 1.0): 0.4 per 1000 polychromatic erythrocytes
effect on incidence of mutagenesis (mouse micronucleus test) ([5]; in vivo, 36 mg/kg): able to decrease incidence of mutagenesis
AUC [6]: 64 µg/mL/h
solubility [2]: increases the aqueous solubility
effect on blood cell counts [7]: clinically effective in part of MDS patients by increasing the blood cell counts
plasma protein binding [8]: quickly bound to the plasma proteins in monomeric form
patients with MDS progression ([9]; of 26 patients (13)): 4/26
patients showing improvement in cytopenias during the therapy [9, 15]: Six
patients with long-lasting good response with normal or close to normal blood cell counts [9, 15]: three
duration of long-lasting good response ([9]; single patients, 2-3 mg hemin/kg): > 11 months and > 12 months and 25 months
AUC [10]: 998 µg/mL/h
patients with MDS progression ([11]; of 14 patients (15)): 4/14
patients with decrease of blasts ([11]; of 14 patients (15), considered to be an occasional event): 1/14
patients with long-lasting improvement in hemoglobin values and/or platelet counts ([11]; of 14 patients, 3 mg hemin/kg): Three
duration of long-lasting improvement in hemoglobin values and/or platelet counts ([11]; single patients, 3 mg hemin/kg): 5 months and 26 months and > 41 months
